Results taken from patent EP4620959A1, “CYCLIC COMPOUNDS USED AS MULTI-TARGET KINASE INHIBITORS AND PREPARATION METHOD THEREFOR” (Shanghai Institute of Organic Chemistry, Chinese Academy of …, priority 2022, dated 2024).
Like-named read-outs stand apart in the source and are kept apart here.

What was measured:
FGFR4 V550L = FGFR4 V550L (Homo sapiens, UniProt P22455, V550L); experiment: Kinase activity inhibition assay (ADP-Glo), FGFR4 V550L; type: biochemical; settings: ATP 20 µM
Experimental: (§1) The kinase activity inhibition assay was performed by ICE Bioscience (Beijing) using ADP-Glo and HTRF methods.
(§2) Table 1.1-1 ADP-Glo Buffer
(§3) Table 1.2-1 ADP-Glo Kinase and Substrate Formulation
(§4) SD is the standard error, and AVE is the average value. Table 2-1 LRRK2 Activity Inhibition Test Results

DYRK2 = DYRK2 (Homo sapiens, UniProt Q92630); experiment: Kinase activity inhibition assay (ADP-Glo), DYRK2; type: biochemical; settings: ATP 5 µM
Experimental: as §1, §2, §3, §4

FGFR1 = FGFR1 (Homo sapiens, UniProt P11362); experiment: Kinase activity inhibition assay (HTRF), FGFR1; type: biochemical; settings: ATP 40 µM
Experimental: as §1
(§5) Table 1.2-2 HTRF Kinase and Substrate Formulation
(§6) • 1) 2×ATP/substrate solution and 2×kinase/metal ion solution were prepared using kinase reaction buffer; • 2) 20 nL (ADP-GLo) or 40 nL (HTRF) of compound dilution was transferred using Echo 655 onto a 384-well assay plate; after centrifugation, 2 µL of 2×kinase and metal ion solution were added to the 384-well assay plate, centrifuged at 1000 rpm for 1 min, and incubated at 25°C for 10 min; • 3) 2 µL of 2×substrate and ATP solution were added to the 384-well assay plate, centrifuged at 1000 rpm for 1 min, and incubated at 25°C for 60 min. • 4) 4 µL of ADP-Glo was transferred to the 384-well assay plate, entrifuged at 1000 rpm for 1 min, and incubated at 25°C for 40 min. • 5) 8 µL of detection solution was transferred to the 384-well assay plate, centrifuged at 1000 rpm for 1 min, and incubated at 25°C for 40 min. • 6) Luminescence signals was read using a multifunctional microplate reader.
as §4

FGFR2 = FGFR2 (Homo sapiens, UniProt P21802); experiment: Kinase activity inhibition assay (HTRF), FGFR2; type: biochemical; settings: ATP 20 µM
Experimental: as §1, §5, §6, §4

FGFR3 = FGFR3 (Homo sapiens, UniProt P22607); experiment: Kinase activity inhibition assay (HTRF), FGFR3; type: biochemical; settings: ATP 50 µM
Experimental: as §1, §5, §6, §4

FGFR4 = FGFR4 (Homo sapiens, UniProt P22455); experiment: Kinase activity inhibition assay (HTRF), FGFR4; type: biochemical; settings: ATP 50 µM
Experimental: as §1, §5, §6, §4

FGFR2 V564I = FGFR2 V564I (Homo sapiens, UniProt P21802, V564I); experiment: Kinase activity inhibition assay (HTRF), FGFR2 V564I; type: biochemical; settings: ATP 20 µM
Experimental: as §1, §5, §6, §4

FGFR3 K650M = FGFR3 K650M (Homo sapiens, UniProt P22607, K650M); experiment: Kinase activity inhibition assay (HTRF), FGFR3 K650M; type: biochemical; settings: ATP 12 µM
Experimental: as §1, §5, §4

FGFR3 V555L = FGFR3 V555L (Homo sapiens, UniProt P22607, V555L); experiment: Kinase activity inhibition assay (HTRF), FGFR3 V555L; type: biochemical; settings: ATP 20 µM
Experimental: as §1, §5, §6, §4

RET V804L = RET V804L (Homo sapiens, UniProt P07949, V804L); experiment: Kinase activity inhibition assay (HTRF), RET V804L; type: biochemical; settings: ATP 5 µM
Experimental: as §1, §5, §6, §4

FGFR4 N535K = FGFR4 N535K (Homo sapiens, UniProt P22455, N535K); experiment: Kinase activity inhibition assay (HTRF), FGFR4 N535K; type: biochemical; settings: ATP 100 µM
Experimental: as §1, §5, §6, §4

TYRO3 = TYRO3 (Homo sapiens, UniProt Q06418); experiment: Kinase activity inhibition assay (HTRF), TYRO3; type: biochemical; settings: ATP 0.5 µM
Experimental: as §1, §5, §4

FGFR1 V561M = FGFR1 V561M (Homo sapiens, UniProt P11362, V561M); experiment: Kinase activity inhibition assay (HTRF), FGFR1 V561M; type: biochemical; settings: ATP 20 µM
Experimental: as §1, §5, §6, §4

FGFR4 V550M = FGFR4 V550M (Homo sapiens, UniProt P22455, V550M); experiment: Kinase activity inhibition assay (HTRF), FGFR4 V550M; type: biochemical; settings: ATP 60 µM
Experimental: as §1, §5, §4

FGFR2 V564F = FGFR2 V564F (Homo sapiens, UniProt P21802, V564F); experiment: Kinase activity inhibition assay (HTRF), FGFR2 V564F; type: biochemical; settings: ATP 15 µM
Experimental: as §1, §5, §6, §4

FGFR3 V555M = FGFR3 V555M (Homo sapiens, UniProt P22607, V555M); experiment: Kinase activity inhibition assay (HTRF), FGFR3 V555M; type: biochemical; settings: ATP 20 µM
Experimental: as §1, §5, §6, §4

FGFR2 N549H = FGFR2 N549H (Homo sapiens, UniProt P21802, N549H); experiment: Kinase activity inhibition assay (HTRF), FGFR2 N549H; type: biochemical; settings: ATP 9 µM
Experimental: as §1, §5, §4

FLT1 = FLT1 (Homo sapiens, UniProt P17948); experiment: Kinase activity inhibition assay (ADP-Glo), FLT1; type: biochemical; settings: ATP 50 µM
Experimental: as §1, §2, §3, §6, §4

FLT4 = FLT4 (Homo sapiens, UniProt P35916); experiment: Kinase activity inhibition assay (HTRF), FLT4; type: biochemical; settings: ATP 32 µM
Experimental: as §1, §5, §6, §4

KDR = KDR (Homo sapiens, UniProt P35968); experiment: Kinase activity inhibition assay (HTRF), KDR; type: biochemical; settings: ATP 4 µM
Experimental: as §1, §5, §4

FLT3 = FLT3 (Homo sapiens, UniProt P36888); experiment: Kinase activity inhibition assay (HTRF), FLT3; type: biochemical; settings: ATP 2 µM
Experimental: as §1, §5, §6, §4

[1] = Oral pharmacokinetic study in rats; settings: rat, in vivo, male SD rats, oral gavage, 1% MC; for AUC(0-t) at 8 h: read-out: AUC0-8
Experimental: Drug preparation: 1% MC was added to the compound, ground, and shaken uniformly. Samples were collected at 5 min, 15 min, 30 min, 1 h, 2 h, 4 h, and 8 h post-dose, followed by analysis using liquid chromatography-tandem mass spectrometry (LC-MS/MS). Table 3 PK Data of Selected Compounds

PDGFRα = PDGFRα (Homo sapiens, UniProt P16234); experiment: Kinase activity inhibition assay (HTRF), PDGFRα; type: biochemical; settings: ATP 0.5 µM
Experimental: as §1, §5, §6, §4

Sequence of FGFR4 (P22455 22-802): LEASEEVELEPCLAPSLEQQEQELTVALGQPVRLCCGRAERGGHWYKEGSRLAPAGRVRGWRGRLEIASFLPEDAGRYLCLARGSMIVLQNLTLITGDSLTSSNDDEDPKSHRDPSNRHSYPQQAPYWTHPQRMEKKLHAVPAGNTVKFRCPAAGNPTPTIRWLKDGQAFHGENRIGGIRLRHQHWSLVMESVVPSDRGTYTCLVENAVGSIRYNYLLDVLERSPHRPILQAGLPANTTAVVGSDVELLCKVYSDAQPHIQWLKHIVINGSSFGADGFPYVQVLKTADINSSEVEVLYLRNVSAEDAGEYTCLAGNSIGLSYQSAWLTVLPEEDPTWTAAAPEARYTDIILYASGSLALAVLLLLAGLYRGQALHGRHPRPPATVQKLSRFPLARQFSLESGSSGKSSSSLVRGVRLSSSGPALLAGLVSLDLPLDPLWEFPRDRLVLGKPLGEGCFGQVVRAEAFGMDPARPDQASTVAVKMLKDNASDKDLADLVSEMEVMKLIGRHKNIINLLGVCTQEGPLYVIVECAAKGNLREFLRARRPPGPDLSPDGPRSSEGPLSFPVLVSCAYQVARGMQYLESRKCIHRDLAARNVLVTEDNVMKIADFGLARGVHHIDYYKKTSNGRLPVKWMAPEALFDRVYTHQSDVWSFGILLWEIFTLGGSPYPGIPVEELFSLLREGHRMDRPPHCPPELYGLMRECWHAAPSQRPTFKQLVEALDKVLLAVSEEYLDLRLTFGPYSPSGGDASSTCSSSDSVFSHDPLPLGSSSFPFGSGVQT
Sequence of RET V804L (P07949 29-1114 V804L): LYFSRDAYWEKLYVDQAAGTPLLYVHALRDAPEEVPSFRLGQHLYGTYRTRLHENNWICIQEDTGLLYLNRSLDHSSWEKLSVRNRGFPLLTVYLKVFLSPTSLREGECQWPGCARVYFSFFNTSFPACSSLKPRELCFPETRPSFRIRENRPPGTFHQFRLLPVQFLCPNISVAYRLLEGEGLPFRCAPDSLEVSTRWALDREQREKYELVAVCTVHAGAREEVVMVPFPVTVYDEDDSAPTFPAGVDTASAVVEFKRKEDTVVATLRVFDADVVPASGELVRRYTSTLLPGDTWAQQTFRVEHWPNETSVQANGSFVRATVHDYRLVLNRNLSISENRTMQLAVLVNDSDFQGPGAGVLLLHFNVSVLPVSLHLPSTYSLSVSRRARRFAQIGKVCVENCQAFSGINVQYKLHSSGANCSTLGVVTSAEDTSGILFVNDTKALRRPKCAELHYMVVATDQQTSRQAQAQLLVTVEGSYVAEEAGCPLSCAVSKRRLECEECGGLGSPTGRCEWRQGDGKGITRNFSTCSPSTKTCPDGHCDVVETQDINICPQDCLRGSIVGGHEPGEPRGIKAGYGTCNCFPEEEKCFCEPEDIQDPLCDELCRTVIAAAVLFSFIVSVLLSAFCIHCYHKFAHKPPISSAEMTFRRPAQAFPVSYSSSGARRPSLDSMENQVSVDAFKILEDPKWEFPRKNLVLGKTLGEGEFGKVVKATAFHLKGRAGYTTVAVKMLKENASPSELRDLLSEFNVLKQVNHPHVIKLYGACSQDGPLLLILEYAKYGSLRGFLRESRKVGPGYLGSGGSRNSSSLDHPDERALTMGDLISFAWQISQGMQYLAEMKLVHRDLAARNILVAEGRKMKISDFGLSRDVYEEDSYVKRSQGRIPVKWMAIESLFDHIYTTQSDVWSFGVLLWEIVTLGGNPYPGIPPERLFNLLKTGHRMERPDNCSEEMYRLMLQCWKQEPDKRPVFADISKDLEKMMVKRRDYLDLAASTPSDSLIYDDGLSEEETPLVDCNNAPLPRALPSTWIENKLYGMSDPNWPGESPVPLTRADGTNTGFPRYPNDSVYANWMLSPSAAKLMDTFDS
Sequence of FGFR3 V555L (P22607 23-806 V555L): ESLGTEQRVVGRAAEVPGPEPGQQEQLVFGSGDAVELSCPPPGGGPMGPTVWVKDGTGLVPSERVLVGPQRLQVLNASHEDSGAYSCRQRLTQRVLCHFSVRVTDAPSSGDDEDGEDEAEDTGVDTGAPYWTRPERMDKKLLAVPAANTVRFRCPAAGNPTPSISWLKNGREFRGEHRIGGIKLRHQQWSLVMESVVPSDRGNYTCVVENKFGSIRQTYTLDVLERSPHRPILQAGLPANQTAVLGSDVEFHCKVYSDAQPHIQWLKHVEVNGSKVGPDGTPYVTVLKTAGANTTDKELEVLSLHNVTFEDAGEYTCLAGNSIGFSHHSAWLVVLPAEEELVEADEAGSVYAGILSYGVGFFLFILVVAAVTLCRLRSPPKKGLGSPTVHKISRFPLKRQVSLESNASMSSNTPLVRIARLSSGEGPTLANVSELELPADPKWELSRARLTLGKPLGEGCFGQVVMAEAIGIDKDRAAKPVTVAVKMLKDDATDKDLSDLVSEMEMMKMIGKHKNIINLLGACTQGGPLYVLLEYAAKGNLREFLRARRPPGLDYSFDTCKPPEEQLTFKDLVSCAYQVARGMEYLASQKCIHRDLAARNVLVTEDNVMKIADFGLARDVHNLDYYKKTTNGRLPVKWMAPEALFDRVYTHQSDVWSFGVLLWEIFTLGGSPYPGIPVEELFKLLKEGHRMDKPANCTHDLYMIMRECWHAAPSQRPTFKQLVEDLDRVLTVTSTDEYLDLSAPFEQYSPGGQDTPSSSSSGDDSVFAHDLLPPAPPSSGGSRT
Sequence of FGFR4 V550L (P22455 22-802 V550L): as the sequence (P22455 22-802) above, with V529L counted along it
Sequence of FGFR2 V564I (P21802 22-821 V564I): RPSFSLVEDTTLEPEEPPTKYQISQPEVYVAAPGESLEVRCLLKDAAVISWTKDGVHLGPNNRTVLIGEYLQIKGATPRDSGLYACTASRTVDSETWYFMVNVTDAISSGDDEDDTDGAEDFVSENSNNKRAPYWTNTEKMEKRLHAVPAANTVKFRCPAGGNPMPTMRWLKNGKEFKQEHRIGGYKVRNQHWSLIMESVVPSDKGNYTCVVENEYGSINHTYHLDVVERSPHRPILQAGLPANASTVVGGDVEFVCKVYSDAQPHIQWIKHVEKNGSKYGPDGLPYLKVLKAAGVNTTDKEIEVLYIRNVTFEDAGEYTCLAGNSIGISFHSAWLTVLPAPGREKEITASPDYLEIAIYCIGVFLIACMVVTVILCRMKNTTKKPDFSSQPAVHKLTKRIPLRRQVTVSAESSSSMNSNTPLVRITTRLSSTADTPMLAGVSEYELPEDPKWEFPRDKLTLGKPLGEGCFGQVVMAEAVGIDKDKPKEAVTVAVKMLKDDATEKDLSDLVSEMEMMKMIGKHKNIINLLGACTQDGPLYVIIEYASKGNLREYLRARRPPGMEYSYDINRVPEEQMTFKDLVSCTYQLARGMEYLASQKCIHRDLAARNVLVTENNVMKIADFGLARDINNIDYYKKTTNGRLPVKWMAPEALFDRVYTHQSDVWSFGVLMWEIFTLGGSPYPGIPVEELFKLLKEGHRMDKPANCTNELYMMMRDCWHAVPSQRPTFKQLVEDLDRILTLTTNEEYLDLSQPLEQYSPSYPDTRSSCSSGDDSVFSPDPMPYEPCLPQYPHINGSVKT
Sequence of FGFR2 V564F (P21802 22-821 V564F): as the sequence (P21802 22-821 V564I) above, with I543F counted along it
Sequence of FGFR4 N535K (P22455 22-802 N535K): as the sequence (P22455 22-802) above, with N514K counted along it
Sequence of FGFR3 K650M (P22607 23-806 K650M): as the sequence (P22607 23-806 V555L) above, with L533V, K628M counted along it
Sequence of FGFR4 V550M (P22455 22-802 V550M): as the sequence (P22455 22-802) above, with V529M counted along it
Sequence of TYRO3 (Q06418 41-890): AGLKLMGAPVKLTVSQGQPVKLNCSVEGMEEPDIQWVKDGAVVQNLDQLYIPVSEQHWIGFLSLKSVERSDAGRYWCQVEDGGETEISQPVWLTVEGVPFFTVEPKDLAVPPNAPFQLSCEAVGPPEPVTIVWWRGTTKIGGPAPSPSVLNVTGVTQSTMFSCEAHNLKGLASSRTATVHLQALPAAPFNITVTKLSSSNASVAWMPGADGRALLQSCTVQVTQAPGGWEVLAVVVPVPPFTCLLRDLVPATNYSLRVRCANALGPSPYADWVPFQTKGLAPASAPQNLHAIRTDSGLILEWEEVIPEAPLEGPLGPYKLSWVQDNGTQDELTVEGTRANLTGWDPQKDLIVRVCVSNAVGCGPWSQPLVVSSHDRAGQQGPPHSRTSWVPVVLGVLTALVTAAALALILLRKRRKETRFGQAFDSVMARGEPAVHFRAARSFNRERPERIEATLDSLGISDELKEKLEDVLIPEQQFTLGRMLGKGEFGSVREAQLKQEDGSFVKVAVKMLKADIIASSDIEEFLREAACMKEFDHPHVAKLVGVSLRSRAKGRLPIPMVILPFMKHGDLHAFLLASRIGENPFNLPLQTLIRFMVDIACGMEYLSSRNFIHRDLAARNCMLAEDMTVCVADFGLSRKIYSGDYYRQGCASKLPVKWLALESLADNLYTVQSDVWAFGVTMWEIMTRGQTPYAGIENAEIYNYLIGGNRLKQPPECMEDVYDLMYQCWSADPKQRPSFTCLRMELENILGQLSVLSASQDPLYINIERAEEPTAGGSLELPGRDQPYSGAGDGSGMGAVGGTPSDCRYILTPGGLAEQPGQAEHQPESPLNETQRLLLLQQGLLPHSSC
Sequence of FGFR2 (P21802 22-821): as the sequence (P21802 22-821 V564I) above, with I543V counted along it
Sequence of FGFR2 N549H (P21802 22-821 N549H): as the sequence (P21802 22-821 V564I) above, with N528H, I543V counted along it
Sequence of FGFR3 V555M (P22607 23-806 V555M): as the sequence (P22607 23-806 V555L) above, with L533M counted along it
Sequence of FGFR3 (P22607 23-806): as the sequence (P22607 23-806 V555L) above, with L533V counted along it

IC50 (FGFR4 V550L) | IC50 (DYRK2) | IC50 (FGFR1) | IC50 (FGFR2) | IC50 (FGFR3) | IC50 (FGFR4) | IC50 (FGFR2 V564I) | IC50 (FGFR3 K650M) | IC50 (FGFR3 V555L) | IC50 (RET V804L) | IC50 (FGFR4 N535K) | IC50 (TYRO3) | IC50 (FGFR1 V561M) | IC50 (FGFR4 V550M) | IC50 (FGFR2 V564F) | IC50 (FGFR3 V555M) | IC50 (FGFR2 N549H) | IC50 (FLT1) | IC50 (FLT4) | IC50 (KDR) | Structure (SMILES) | other results
67.4 nM | 248 nM | 135 nM | 21.8 nM | 50.2 nM | 32.9 nM | 76.1 nM | 9.1 nM | 5.09 nM | 175 nM | 609 nM | 278 nM | 26.7 nM | 126 nM | 8.22 nM | 12.7 nM | 16.4 nM | 15.2 nM | 65.1 nM | 18.9 nM | Cc1nn2cc1Nc1ncc(C(F)(F)F)c(n1)NCCCNC(=O)C2(C)C [Example T-1, (E)-3^3,4,4-Trimethyl-15-(trifluoromethyl)-3^1H-2,6,10-triaza-1(2,4)-pyrimidina-3(4,1)-pyrazolacyclodecan-5-one] | IC50 (FLT3): 370 nM; Cmax ([1]; 3 mg/kg, dose 3mpk): 754 ng/mL; Tmax ([1]; 3 mg/kg, dose 3mpk): 1 h; half-life ([1]; 3 mg/kg, dose 3mpk): 2.3 h; AUC(0-t) at 8 h ([1]; 3 mg/kg, dose 3mpk): 3820 ng·h/mL
208 nM | 27.7 nM | 180 nM | 31.9 nM | 67.5 nM | 58.3 nM | 60.2 nM | 14.1 nM | 8.81 nM | 43.9 nM | 621 nM | 56.1 nM | 13.8 nM | 105 nM | 1.73 nM | 5.07 nM | 17.4 nM | 8.83 nM | 19.2 nM | 7.67 nM | Cc1nn2cc1Nc1ncc3c(Cl)cc(n3n1)CCCNC(=O)C2(C)C [Example T-25, (1^1Z,3^4E)-1^5-Chloro-3^3,4,4-trimethyl-3^1H-2,6-diaza-1(2,7)-pyrrolo[2,1-f][1,2,4]triazine-3(4,1)-pyrazolacyclononan-5-one] | IC50 (PDGFRα): 67 nM; IC50 (FLT3): 88.1 nM; Cmax ([1]; 5 mg/kg, dose 5mpk): 630 ng/mL; Tmax ([1]; 5 mg/kg, dose 5mpk): 1 h; half-life ([1]; 5 mg/kg, dose 5mpk): 1.73 h; AUC(0-t) at 8 h ([1]; 5 mg/kg, dose 5mpk): 2210 ng·h/mL
